From patent publication US10308608B2, “Histone deacetylase inhibitors” (BIOMARIN PHARMACEUTICAL INC., priority 2015, dated 2019)
Structures can show the parent of a compound that is named as a salt.

tested on: Frataxin (FXN) mRNA; experiment: Effect of HDAC inhibitors on frataxin (FXN) mRNA expression, qRT-PCR in compound-treated iPSC derived neuronal cells; assay type: cell-based; conditions: iPSC, 24 h, compound concentration of 0.625 μM, 24 h incubation, read-out: FXN mRNA fold induction
Method in brief: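 iPSC-derived neuronal cells, differentiated 16 days without EGF/bFGF, treated with compound 24 h. FXN mRNA measured by one-step SYBR Green qRT-PCR; fold induction reported at 0.625 μM compound, binned A<1, 1<B<2, 2<C<3, 3<D<5, E>5.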

| Structure (SMILES) | fold induction at 0.625 µM |
| --- | --- |
| Nc1ccccc1NC(=O)c1ccc(OC2CCCN(C3COC3)CC2)cc1 (centres unmarked) [Compound 124, N-(2-aminophenyl)-4-((1-(oxetan-3-yl)azepan-4-yl)oxy)benzamide] | 1 to 2 |
| Nc1ccccc1NC(=O)c1ccc(OC2CN(C3CC3)C2)cc1 [Compound 125, N-(2-aminophenyl)-4-((1-cyclopropylazetidin-3-yl)oxy)benzamide] | 1 to 2 |
| Nc1ccccc1NC(=O)c1ccc(OC2CN(C3COC3)C2)cc1 [Compound 126, N-(2-aminophenyl)-4-((1-(oxetan-3-yl)azetidin-3-yl)oxy)benzamide] | 1 to 2 |
| Nc1ccccc1NC(=O)c1ccc(O[C@H]2CCN(C3CC3)C2)cc1 [Compound 127, (S)-N-(2-aminophenyl)-4-((1-cyclopropylpyrrolidin-3-yl)oxy)benzamide dihydrochloride] | 1 to 2 |
| Nc1ccccc1NC(=O)c1ccc(O[C@H]2CCN(C3COC3)C2)cc1 [Compound 128, (S)-N-(2-aminophenyl)-4-((1-(oxetan-3-yl)pyrrolidin-3-yl)oxy)benzamide] | 1 to 2 |
| Nc1ccccc1NC(=O)c1ccc(O[C@@H]2CCN(C3CC3)C2)cc1 [Compound 129, (R)-N-(2-aminophenyl)-4-((1-cyclopropylpyrrolidin-3-yl)oxy)benzamide] | 1 to 2 |
| Nc1ccccc1NC(=O)c1ccc(O[C@@H]2CCN(C3COC3)C2)cc1 [Compound 130, (R)-N-(2-aminophenyl)-4-((1-(oxetan-3-yl)pyrrolidin-3-yl)oxy)benzamide] | 1 to 2 |
| Nc1ccccc1NC(=O)c1ccc(OC2CCN(C3CC3)CC2)cc1 [Compound 131, N-(2-aminophenyl)-4-((1-cyclopropylpiperidin-4-yl)oxy)benzamide dihydrochloride] | 1 to 2 |
| Nc1ccccc1NC(=O)c1ccc(OC2CCN(C3COC3)CC2)cc1 [Compound 132, N-(2-aminophenyl)-4-((1-(oxetan-3-yl)piperidin-4-yl)oxy)benzamide] | 1 to 2 |
| Nc1ccccc1NC(=O)c1ccc(OC2CCN(CC34CC5CC(CC(C5)C3)C4)CC2)cc1 [Compound 133, 4-((1-(((3r,5r,7r)-adamantan-1-yl)methyl)pipendin-4-yl)oxy)-N-(2-aminophenyl)benzamide dihydrochloride] | 2 to 3 |
| Nc1ccccc1NC(=O)c1ccc(NC2CN(C3CC3)C2)cc1 [Compound 134, N-(2-aminophenyl)-4-((1-cyclopropylazetidin-3-yl)amino)benzamide trihydrochloride] | 1 to 2 |
| Nc1ccccc1NC(=O)c1ccc(NC2CN(C3COC3)C2)cc1 [Compound 135, N-(2-aminophenyl)-4-((1-(oxetan-3-yl)azetidin-3-yl)amino)benzamide] | 1 to 2 |
| Nc1ccccc1NC(=O)c1ccc(N[C@H]2CCN(C3CC3)C2)cc1 [Compound 136, (S)-N-(2-aminophenyl)-4-((1-cyclopropylpyrrolidin-3-yl)amino)benzamide] | 1 to 2 |
| Nc1ccccc1NC(=O)c1ccc(N[C@H]2CCN(C3COC3)C2)cc1 [Compound 137, (S)-N-(2-aminophenyl)-4-((1-(oxetan-3-yl)pyrrolidin-3-yl)amino)benzamide] | 1 to 2 |
| Nc1ccccc1NC(=O)c1ccc(N[C@@H]2CCN(C3CC3)C2)cc1 [Compound 138, (R)-N-(2-aminophenyl)-4-((1-cyclopropylpyrrolidin-3-yl)amino)benzamide trihydrochloride] | 2 to 3 |
| Nc1ccccc1NC(=O)c1ccc(N[C@@H]2CCN(C3COC3)C2)cc1 [Compound 139, (R)-N-(2-aminophenyl)-4-((1-(oxetan-3-yl)pyrrolidin-3-yl)amino)benzamide tris(2,2,2-trifluoroacetate)] | 1 to 2 |
| Nc1ccccc1NC(=O)c1ccc(NC2CCN(C3CC3)CC2)cc1 [Compound 140, N-(2-aminophenyl)-4-((1-cyclopropylpiperidin-4-yl)amino)benzamide trihydrochloride trihydrochloride] | 2 to 3 |
| Nc1ccccc1NC(=O)c1ccc(NC2CCN(C3COC3)CC2)cc1 [Compound 141, N-(2-aminophenyl)-4-((1-(oxetan-3-yl)piperidin-4-yl)amino)benzamide] | 1 to 2 |
| Nc1ccccc1NC(=O)c1ccc(NC2CCN(CC34CC5CC(CC(C5)C3)C4)CC2)cc1 [Compound 142, 4-((1-(((3r,5r,7r)-adamantan-1-yl)methyl)piperidin-4-yl)amino)-N-(2-aminophenyl)benzamide trihydrochloride] | 2 to 3 |
| CC(=O)N1CC(Nc2ccc(C(=O)Nc3ccccc3N)cc2)C1 [Compound 170, 4-((1-acetylazetidin-3-yl)amino)-N-(2-aminophenyl)benzamide] | 1 to 2 |
| CC(C)(O)CN1CCC(Oc2ccc(C(=O)Nc3ccccc3N)cc2)CC1(C)C (centres unmarked) [Compound 363, N-(2-aminophenyl)-4-((1-(2-hydroxy-2-methylpropyl)-2,2-dimethylpiperidin-4-yl)oxy)benzamide] | 2 to 3 |
| CC(C)(O)CN1CCC(Nc2ccc(C(=O)Nc3ccccc3N)cc2)CC1(C)C (centres unmarked) [Compound 369, N-(2-aminophenyl)-4-((1-(2-hydroxy-2-methylpropyl)-2,2-dimethylpiperidin-4-yl)amino)benzamide] | 1 to 2 |
| CC(C)(O)CN1CCC(Sc2ccc(C(=O)Nc3ccccc3N)cc2)CC1 [Compound 375, N-(2-aminophenyl)-4-((1-(2-hydroxy-2-methylpropyl)piperidin-4-yl)thio)benzamide] | 1 to 2 |
